Like-named read-outs stand apart in the source and are kept apart here.
Tested on: ISR pathway (ATF4 translation)
Assay: ATF4 Nano Luciferase reporter integrated stress response (ISR) assay in H4 ATF4-NLuc cells
Conditions: compound 30 minutes, then 50 um sodium arsenite for 6 hours, luminescence readout
[1] = Homo sapiens, read-out: Activity (IC50), H4 ATF4-NLuc (clone 17) cells
[2] = Homo sapiens, H4 ATF4-NLuc (clone 17) cells
[3] = read-out: Activity (IC50), H4 ATF4-NLuc (clone 17) cells

SMILES | IC50 [1] [µM] | IC50 [2] [µM] | IC50 [3] [µM]
O=C(CO[C@H]1C[C@@H](OC(F)(F)F)C1)NC12CC(c3nnc(COc4ccc(Cl)c(F)c4)o3)(C1)C2 [Example 41, N-[1-[5-[(4-chloro-3-fluoro-phenoxy)methyl]-1,3,4-oxadiazol-2-yl]-3-bicyclo[1.1.1]pentanyl]-2-cis-[3-(trifluoromethoxy)cyclobutoxy]acetamide] | < 1 | – | –
O=C(COC1CCC1)NC12CC(c3nnc(-c4ccc(Cl)c(F)c4)o3)(C1)C2 [Example 42, N-[1-[5-(4-chloro-3-fluoro-phenyl)-1,3,4-oxadiazol-2-yl]-3-bicyclo[1.1.1]pentanyl]-2-(cyclobutoxy)acetamide] | 1 to 10 | – | –
O=C(COc1ccc(Cl)c(F)c1)NC12CC(c3nnc([C@H]4C[C@@H](C(F)(F)F)C4)o3)(C1)C2 [Example 43, 2-(4-chloro-3-fluorophenoxy)-N-(3-(5-((cis)-3-(trifluoromethyl)cyclobutyl)-1,3,4-oxadiazol-2-yl)bicyclo[1.1.1]pentan-1-yl)acetamide] | < 1 | – | –
O=C(COc1ccc(Cl)c(F)c1)NC12CC(c3nnc([C@H]4C[C@H](C(F)(F)F)C4)o3)(C1)C2 [Example 44, 2-(4-chloro-3-fluoro-phenoxy)-N-[1-[5-trans-[3-(trifluoromethyl)cyclobutyl]-1,3,4-oxadiazol-2-yl]-3-bicyclo[1.1.1]pentanyl]acetamide] | < 1 | – | –
O=C(COc1ccc(Cl)c(F)c1)NC12CC(c3nnc(COC(F)(F)F)o3)(C1)C2 [Example 45, 2-(4-chloro-3-fluoro-phenoxy)-N-[1-[5-(trifluoromethoxymethyl)-1,3,4-oxadiazol-2-yl]-3-bicyclo[1.1.1]pentanyl]acetamide] | < 1 | – | –
O=C(COC1CCC1)NC12CC(c3nnc(COc4ccc(Cl)c(F)c4)o3)(C1)C2 [Example 46] | < 1 | – | –
O=C(COc1ccc(Cl)c(F)c1)NC12CC(c3ncc(C4CCC4)o3)(C1)C2 [Example 47] | < 1 | – | –
O=C(COc1ccc(Cl)c(F)c1)NC12CC(n3cnc(CC4CCC4)c3)(C1)C2 [Example 48] | < 1 | – | –
O=C(CO[C@H]1C[C@@H](OC(F)(F)F)C1)NC12CC(c3nnc([C@H]4C[C@@H](OC(F)(F)F)C4)o3)(C1)C2 [Example 50] | < 1 | – | –
O=C(COc1ccc(Cl)c(F)c1)NC12CC(c3nnc([C@H]4C[C@@H](OC(F)F)C4)o3)(C1)C2 [Example 51] | < 1 | 0.0137 | –
O=C(CO[C@H]1C[C@@H](OC(F)(F)F)C1)NC12CC(n3cnc(C4CC(OC(F)(F)F)C4)c3)(C1)C2 (some centres unmarked) [Example 52] | < 1 | – | –
O=C(COc1ccc(Cl)c(F)c1)NC12CC(c3nnc(CO[C@H]4C[C@@H](OC(F)(F)F)C4)o3)(C1)C2 [Example 53] | < 1 | – | –
O=C(COc1ccc(Cl)c(F)c1)NC12CC(c3nnc(CCOC(F)(F)F)o3)(C1)C2 [Example 55] | < 1 | – | –
O=C(CCc1ccc(Cl)cn1)NC12CC(c3nnc([C@H]4C[C@@H](OC(F)(F)F)C4)o3)(C1)C2 [Example 56] | 1 to 10 | – | –
O=C(COc1ccc(Cl)c(F)c1)NC12CC(c3cn(C4CC(O)C4)nn3)(C1)C2 (centres unmarked) [Example 57] | 1 to 10 | – | –
O=C(COc1ccc(Cl)c(F)c1)NC12CC(c3cn(Cc4ccccc4)nn3)(C1)C2 [Example 58] | < 1 | – | –
O=C(COc1ccc(Cl)c(F)c1)NC12CC(C3CN(C4CCC4)C(=O)O3)(C1)C2 (centres unmarked) [Example 59] | – | – | 1 to 10
O=C(COc1ccc(Cl)c(F)c1)NC12CC(C3CN(CC4CCC4)C(=O)O3)(C1)C2 (centres unmarked) [Example 60] | – | – | < 1

SMILES | IC50 [1] [µM] | IC50 [2] [µM] | IC50 [3] [µM]
O=C(COc1ccc(Cl)c(F)c1)NC12CC(n3cnc([C@H]4C[C@@H](OC(F)(F)F)C4)c3)(C1)C2 [Example 61, 2-(4-chloro-3-fluoro-phenoxy)-N-[3-[4-[3-cis-(trifluoromethoxy)cyclobutyl]imidazol-1-yl]-1-bicyclo[1.1.1]pentanyl]acetamide] | < 1 | 0.0019 | –
O=C(COc1ccc(Cl)c(F)c1)NC12CC(n3cnc([C@H]4C[C@H](OC(F)(F)F)C4)c3)(C1)C2 [Example 62, 2-(4-chloro-3-fluoro-phenoxy)-N-[3-[4-[3-trans-(trifluoromethoxy)cyclobutyl]imidazol-1-yl]-1-bicyclo[1.1.1]pentanyl]acetamide] | < 1 | – | –
O=C(CO[C@H]1C[C@@H](OC(F)(F)F)C1)NC12CC(n3cnc([C@H]4C[C@@H](OC(F)(F)F)C4)c3)(C1)C2 [Example 63, 2-[3-cis-(trifluoromethoxy)cyclobutoxy]-N-[3-[4-[3-cis-(trifluoromethoxy)cyclobutyl]imidazol-1-yl]-1-bicyclo[1.1.1]pentanyl]acetamide] | < 1 | – | –
O=C(COc1ccc(Cl)c(F)c1)NC12CC(c3cn([C@H]4C[C@H](OC(F)(F)F)C4)nn3)(C1)C2 [Example 64, 2-(4-chloro-3-fluoro-phenoxy)-N-[3-[1-[3-trans-(trifluoromethoxy)cyclobutyl]triazol-4-yl]-1-bicyclo[1.1.1]pentanyl]acetamide] | < 1 | – | –
O=C(COc1ccc(Cl)c(F)c1)NC12CC(c3cn([C@H]4C[C@@H](OC(F)(F)F)C4)nn3)(C1)C2 [Example 65, 2-(4-chloro-3-fluoro-phenoxy)-N-[3-[1-[3-cis-(trifluoromethoxy)cyclobutyl]triazol-4-yl]-1-bicyclo[1.1.1]pentanyl]acetamide] | < 1 | – | –
O=C(COc1ccc(Cl)c(F)c1)NC12CC(n3cnc(C4CN(CC(F)(F)F)C4)c3)(C1)C2 [Example 67, 2-(4-chloro-3-fluoro-phenoxy)-N-[3-[4-[1-(2,2,2-trifluoroethyl)azetidin-3-yl]imidazol-1-yl]-1-bicyclo[1.1.1]pentanyl]acetamide] | < 1 | – | –
O=C(COc1ccc(Cl)cc1)NC12CC(n3cnc([C@H]4C[C@@H](OC(F)(F)F)C4)c3)(C1)C2 [Example 68, 2-(4-chlorophenoxy)-N-[3-[4-[3-cis-(trifluoromethoxy)cyclobutyl]imidazol-1-yl]-1-bicyclo[1.1.1]pentanyl]acetamide] | < 1 | – | –
O=C(COc1ccc(Cl)cc1)NC12CC(n3cnc([C@H]4C[C@H](OC(F)(F)F)C4)c3)(C1)C2 [Example 69, 2-(4-chlorophenoxy)-N-[3-[4-[3-trans-(trifluoromethoxy)cyclobutyl]imidazol-1-yl]-1-bicyclo[1.1.1]pentanyl]acetamide] | < 1 | – | –
O=C(COc1ccc(F)cc1)NC12CC(c3nnc([C@H]4C[C@@H](OC(F)(F)F)C4)o3)(C1)C2 [Example 71, 2-(4-fluorophenoxy)-N-[3-[5-[3-cis-(trifluoromethoxy)cyclobutyl]-1,3,4-oxadiazol-2-yl]-1-bicyclo[1.1.1]pentanyl]acetamide] | < 1 | – | –
O=C(COc1ccc(F)cc1)NC12CC(c3nnc([C@H]4C[C@H](OC(F)(F)F)C4)o3)(C1)C2 [Example 72, 2-(4-fluorophenoxy)-N-[3-[5-[3-trans-(trifluoromethoxy)cyclobutyl]-1,3,4-oxadiazol-2-yl]-1-bicyclo[1.1.1]pentanyl]acetamide] | < 1 | – | –
O=C(CO[C@H]1C[C@@H](OC(F)(F)F)C1)NC12CC(c3nnc(-c4cncc(F)c4)o3)(C1)C2 [Example 73, N-[1-[5-(5-fluoro-3-pyridyl)-1,3,4-oxadiazol-2-yl]-3-bicyclo[1.1.1]pentanyl]-2-[3-cis-(trifluoromethoxy)cyclobutoxy]acetamide] | 1 to 10 | – | –
C#CCN(C(=O)COc1ccc(Cl)cc1)C12CC(c3nnc([C@H]4C[C@@H](OC(F)(F)F)C4)o3)(C1)C2 [Example 74, 2-(4-chlorophenoxy)-N-prop-2-ynyl-N-[1-[5-[3-cis-(trifluoromethoxy)cyclobutyl]-1,3,4-oxadiazol-2-yl]-3-bicyclo[1.1.1]pentanyl]acetamide] | < 1 | – | –
O=C(CC[C@H]1C[C@@H](OC(F)(F)F)C1)NC12CC(c3nnc(C4CC(OC(F)(F)F)C4)o3)(C1)C2 (stereo partly drawn) [Example 75, 3-[3-cis-(trifluoromethoxy)cyclobutyl]-N-[3-[5-[3-cis-(trifluoromethoxy)cyclobutyl]-1,3,4-oxadiazol-2-yl]-1-bicyclo[1.1.1]pentanyl]propanamide] | 1 to 10 | – | –
O=C(NC12CC(c3nnc([C@H]4C[C@@H](OC(F)(F)F)C4)o3)(C1)C2)C1Cc2cc(Cl)ccc2O1 (stereo partly drawn) [Example 76, 5-chloro-N-[3-[5-[3-cis-(trifluoromethoxy)cyclobutyl]-1,3,4-oxadiazol-2-yl]-1-bicyclo[1.1.1]pentanyl]-2,3-dihydrobenzofuran-2-carboxamide] | < 1 | – | –
O=C(CO[C@H]1C[C@@H](OC(F)(F)F)C1)NC12CC(c3cn(-c4ccc(Cl)c(F)c4)nn3)(C1)C2 [Example 77, N-[3-[1-(4-chloro-3-fluoro-phenyl)triazol-4-yl]-1-bicyclo[1.1.1]pentanyl]-2-[3-cis-(trifluoromethoxy)cyclobutoxy]acetamide] | < 1 | – | –
O=C(CO[C@H]1C[C@@H](OC(F)(F)F)C1)NC12CC(c3cnn(-c4ccc(Cl)c(F)c4)n3)(C1)C2 [Example 78, N-[3-[2-(4-chloro-3-fluoro-phenyl)triazol-4-yl]-1-bicyclo[1.1.1]pentanyl]-2-[3-cis-(trifluoromethoxy)cyclobutoxy]acetamide] | < 1 | – | –
O=C(COc1ccc(Cl)c(F)c1)NC12CC(c3cnn([C@H]4C[C@@H](OC(F)(F)F)C4)n3)(C1)C2 [Example 79, 2-(4-chloro-3-fluoro-phenoxy)-N-[3-[2-[3-cis-(trifluoromethoxy)cyclobutyl]triazol-4-yl]-1-bicyclo[1.1.1]pentanyl]acetamide] | < 1 | – | –
O=C(COC1CC2C(C1)C2(F)F)NC12CC(c3nnc([C@H]4C[C@@H](OC(F)(F)F)C4)o3)(C1)C2 (stereo partly drawn) [Example 83, 2-[(6,6-difluoro-3-bicyclo[3.1.0]hexanyl)oxy]-N-[3-[5-[3-cis-(trifluoromethoxy)cyclobutyl]-1,3,4-oxadiazol-2-yl]-1-bicyclo[1.1.1]pentanyl]acetamide] | 1 to 10 | – | –

— US11851440B2, “Modulators of eukaryotic initiation factor 2B, compositions and methods” (Denali Therapeutics Inc., priority 2017, dated 2023)
